Reference: PubChem BioAssay (NCI)
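Where inhibition never reached the appropriate level, the endpoint shown equals the highest concentration tested. Otherwise, values were interpolated linearly from a five-concentration, 48-hour dose response in 96-well plates. TGI: concentration producing complete growth inhibition.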

How the values were obtained:
Assay in all cases: inhibition of tumour cell growth, NCI panel, 48 h
SW-620 colon = tested on: SW-620 colon
EKVX NSCLC = tested on: EKVX NSCLC
SK-OV-3 ovarian = tested on: SK-OV-3 ovarian
HT29 colon = tested on: HT29 colon
UACC-62 melanoma = tested on: UACC-62 melanoma
SF-268 CNS = tested on: SF-268 CNS
LOX IMVI melanoma = tested on: LOX IMVI melanoma
NCI-H23 lung = tested on: NCI-H23 lung
OVCAR-3 ovarian = tested on: OVCAR-3 ovarian
ACHN renal = tested on: ACHN renal

Compound | TGI (SW-620 colon) [µM] | TGI (EKVX NSCLC) [µM] | TGI (SK-OV-3 ovarian) [µM] | TGI (HT29 colon) [µM] | TGI (UACC-62 melanoma) [µM] | TGI (SF-268 CNS) [µM] | TGI (LOX IMVI melanoma) [µM] | TGI (NCI-H23 lung) [µM] | TGI (OVCAR-3 ovarian) [µM] | TGI (ACHN renal) [µM]
COc1ccccc1NCC(=O)Nn1c(C)nc2ccc(S(=O)(=O)Nc3ccccc3OC)cc2c1=O | > 100 | > 100 | > 100 | > 100 | > 100 | > 100 | > 100 | > 100 | > 100 | > 100
C=C1c2nc3ccccc3n2C=C(c2ccc(OC)cc2)N1c1ccc(OCCN2CCOCC2)cc1 | > 100 | > 100 | > 100 | > 100 | > 100 | > 31.9 | > 100 | > 100 | > 100 | > 100
C#CCCCC(=O)N(C(=O)CS(=O)CC)c1ccccc1 (centres undefined) | > 100 | > 100 | > 100 | > 100 | > 100 | > 100 | > 100 | > 100 | > 100 | > 100
Cc1nc2c(=O)[nH]c3ccc(Cl)cc3c2o1 | > 100 | > 100 | > 100 | > 100 | > 100 | > 100 | > 100 | > 100 | > 100 | > 100
CN(C)c1ccc(/C=c2/c3cc([N+](=O)[O-])ccc3n3c2cc(-c2ccccc2)[n+]3C)cc1 | 2.75 | 7.81 | 11.3 | 6.76 | 1.87 | 2.86 |  | > 24.2 | 5.48 | 19.6
CCOP(=O)(OCC)C(Nc1ccc(F)cc1)c1ccccc1 (centres undefined) | > 100 | > 100 | > 100 | > 100 | > 100 | > 100 | > 100 | > 100 | > 100 | > 100
CC(=O)OCC1OC(N2C(S)=C(C#N)C(c3ccco3)C(C(C)=O)=C2c2ccccc2)C(OC(C)=O)C(OC(C)=O)C1OC(C)=O (centres undefined) | > 100 |  |  | > 100 | > 100 | > 100 | > 100 | > 100 | > 100 | 
COC(=O)C(Cc1nc2ccccc2[nH]c1=O)C(=O)C(=O)Nc1cc(C(F)(F)F)ccc1Cl (centres undefined) | > 100 | 39 | > 100 | 28.6 | 53.4 | 36.4 | 31.5 | 30.4 | 25.4 | 24.5
O=C1c2cc([N+](=O)[O-])sc2C(=O)c2ccsc21 | 0.779 | 3.01 | 2.95 | 1.48 | 0.433 | 1.06 | 0.225 | 1.15 | 0.209 | 0.768
CC(C)N(C(C)C)P(OCCC#N)OC1CC(n2cnc3c(=O)[nH]cnc32)OC1COC(=O)NCCCCCCNC(=O)OC(C)(C)c1ccc(-c2ccccc2)cc1 (centres undefined) | > 100 | > 100 | > 100 | > 100 | 35.3 | 57.5 | 32.7 | 50.5 |  | > 100
CC1CC[C@@]2(OC1)OC1C[C@H]3[C@@H]4CCC5CC(O)CC[C@]5(C)[C@H]4C/C(=N\N(C)C)[C@]3(C)C1[C@@H]2C (some centres undefined) | > 100 |  | 47 | 39.9 | > 100 | 99.4 | > 100 | 42.6 | 38.6 | > 100
CC1(C)CC[C@]2(C(=O)O)[C@H](O)C[C@]3(C)C(=CC[C@@H]4[C@@]5(C)CC[C@H](OC6OC(C(=O)O)C(O)C(O)C6O)C(C)(C)[C@@H]5CC[C@]43C)[C@@H]2C1 (some centres undefined) | > 100 | > 100 | > 100 | > 100 | 61.9 | > 100 | > 100 | > 100 | > 100 | > 100
CCCCNC(=S)Nc1nc(C(=O)NNC(=O)c2ccccc2)cs1 | 30.2 | > 100 | 35.3 | > 100 | 41.4 | > 100 | 21.7 |  | 19.7 | 37.3
NCCCC[C@H](N)C(=O)Nc1ccc(-c2nc3ccccc3s2)cc1Cl | 23.6 | 19.6 | 31.1 | 18.1 | 28.5 | 25.5 |  | > 37.6 | 19.2 | 29.3
O=C1N[C@@H](COc2ccc(C=Nc3ccc(CCc4ccc(N=Cc5ccc(OC[C@@H]6COC(=O)N6)cc5)cc4)cc3)cc2)CO1 | > 100 | > 100 | > 100 | > 100 | > 100 | > 100 | > 100 |  | > 100 | > 100
OC1c2ccccc2C(O)C2OC12 (centres undefined) | > 100 |  | > 100 | > 100 | > 100 | > 100 | > 100 | > 100 | > 100 | > 100
c1ccc(CCn2cncn2)cc1 | > 100 | > 100 | > 100 | > 100 | > 100 | > 100 |  | > 100 | > 100 | > 100
CC[C@H](C)C1=C(OC(C)=O)[N@+]2([O-])Oc3ccc(-c4c(OC(C)=O)c(OC(C)=O)c(-c5ccc(OC(C)=O)cc5)c(OC(C)=O)c4OC(C)=O)cc3O[C@]2([C@@H](C)CC)C(=O)N1OC(C)=O | > 50 | 22.5 | 49.4 | > 50 | 17.7 | > 50 | 22.1 | > 50 | 23.4 | > 50
OCC(O)C(O)C(O)C(O)/C=N/Nc1nc(O)c(/C=C2\C=Nc3ccccc32)[nH]1 (centres undefined) | > 100 | > 100 | > 100 | > 100 | > 100 | > 100 | > 100 | > 100 | > 100 | > 100
COc1cc(C=O)cc(C=Nc2ccc(S(N)(=O)=O)cc2)c1O | > 100 | > 100 | 7.93 | > 100 | > 100 | 39.2 | 42.7 | > 100 | > 100 | 35.2
O=C(Oc1cccc(Cl)c1)c1cc2cc(CCl)ccc2oc1=O | > 100 | > 100 | > 100 | > 100 | 28.2 | > 100 | > 100 | > 100 | > 100 | 38.5
